{"source": "paper PMC11882969", "about": "(Nature Communications, 2025)", "key": {"[1]": {"target": "T1, CB1 (rCB1) (Rattus norvegicus, UniProt P20272)", "T1 sequence (P20272 whole entry)": "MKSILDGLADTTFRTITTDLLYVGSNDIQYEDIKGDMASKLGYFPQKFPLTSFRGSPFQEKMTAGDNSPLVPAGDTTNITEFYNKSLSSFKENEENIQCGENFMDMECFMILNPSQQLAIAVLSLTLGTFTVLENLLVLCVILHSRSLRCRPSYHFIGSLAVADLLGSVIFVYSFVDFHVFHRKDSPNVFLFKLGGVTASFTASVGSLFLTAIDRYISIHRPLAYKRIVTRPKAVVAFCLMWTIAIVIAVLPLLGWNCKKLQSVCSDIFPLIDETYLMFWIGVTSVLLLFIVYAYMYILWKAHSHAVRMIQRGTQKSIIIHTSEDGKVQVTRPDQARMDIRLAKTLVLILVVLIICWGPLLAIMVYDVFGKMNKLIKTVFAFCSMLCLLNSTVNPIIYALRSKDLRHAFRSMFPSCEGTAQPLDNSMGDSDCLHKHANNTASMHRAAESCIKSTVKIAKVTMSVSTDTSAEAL", "test": "Radioligand competition binding, [3H]-CP-55,940, rat brain membranes"}, "[2]": {"target": "hCB1 (Homo sapiens, UniProt P21554)", "sequence (P21554 whole entry)": "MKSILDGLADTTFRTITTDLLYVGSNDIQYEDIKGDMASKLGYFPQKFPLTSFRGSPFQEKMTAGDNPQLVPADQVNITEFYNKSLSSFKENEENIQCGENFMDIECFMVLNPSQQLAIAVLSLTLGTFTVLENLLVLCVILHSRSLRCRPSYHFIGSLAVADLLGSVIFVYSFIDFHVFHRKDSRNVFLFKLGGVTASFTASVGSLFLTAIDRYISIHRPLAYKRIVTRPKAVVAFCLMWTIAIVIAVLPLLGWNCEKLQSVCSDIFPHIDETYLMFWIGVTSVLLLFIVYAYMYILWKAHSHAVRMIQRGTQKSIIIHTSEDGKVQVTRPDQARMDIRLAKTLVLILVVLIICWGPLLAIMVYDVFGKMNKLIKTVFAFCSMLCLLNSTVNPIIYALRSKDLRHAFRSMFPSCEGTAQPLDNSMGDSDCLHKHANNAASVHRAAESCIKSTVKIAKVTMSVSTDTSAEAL", "test": "bioSensAll ebBRET signaling profiling, hCB1", "assay_type": "cell-based", "design": "host or cells: HEK293SL cells, transient PEI transfection", "conditions": "for Gi1 hCB1 response: Gi1 biosensor; for Gi1 hCB1 / GoB hCB1: single replicate values, FigS6a; for EC50: read-out: EC50 [95% CI]; for Emax: normalized to CP-55,940"}, "[3]": {"target": "T1, CB1 (rCB1)", "test": "Single-point radioligand displacement screen", "assay_type": "binding", "conditions": "10 µM, 1 µM or 300 nM by cell colour (not visible)"}}, "note": "“And” between values parts separate entries of the source, which are not always exact repeats. Identical values can stand only once. Like-named read-outs stand apart in the source and are kept apart here.", "data": [{"smiles": "Cc1cc(C(=O)NC(c2ccccc2)c2ccco2)nn1-c1cccc(C#N)c1", "note": "(stereo not drawn) [‘12565]", "values": [{"measurement": "pKi [95% CI]", "setting": "[1]; rCB1", "value": "6.5 [6.3 – 6.7]"}, {"measurement": "Ki", "setting": "[1]; read-out: Ki [95% CI], rCB1, [3H]-CP-55,940", "value": 301, "unit": "nM"}, {"measurement": "Gi1 hCB1 response", "setting": "[2]; Log [Compound] (M) -4.22186", "value": 51.3091}, {"measurement": "Gi1 hCB1 response", "setting": "[2]; Log [Compound] (M) -4.63927", "value": 50.5034}, {"measurement": "Gi1 hCB1 response", "setting": "[2]; Log [Compound] (M) -5.05788", "value": 44.5052}, {"measurement": "Gi1 hCB1 response", "setting": "[2]; Log [Compound] (M) -5.47381", "value": 43.9457}, {"measurement": "Gi1 hCB1 response", "setting": "[2]; Log [Compound] (M) -5.89285", "value": 42.849}, {"measurement": "Gi1 hCB1 response", "setting": "[2]; Log [Compound] (M) -6.31878", "value": 33.2921}, {"measurement": "Gi1 hCB1 response", "setting": "[2]; Log [Compound] (M) -6.72585", "value": 46.4524}, {"measurement": "Gi1 hCB1 response", "setting": "[2]; Log [Compound] (M) -7.14267", "value": 19.6618}, {"measurement": "Gi1 hCB1 response", "setting": "[2]; Log [Compound] (M) -7.55284", "value": 13.0593}, {"measurement": "Gi1 hCB1 response", "setting": "[2]; Log [Compound] (M) -8", "value": 11.2688}, {"measurement": "Gi1 hCB1 response", "setting": "[2]; Log [Compound] (M) -8.22186", "value": -3.794}, {"measurement": "Gi1 hCB1 response", "setting": "[2]; Log [Compound] (M) -8.39794", "value": -8.2031}, {"measurement": "Gi1 hCB1 response", "setting": "[2]; Log [Compound] (M) -8.68787", "value": -4.197}, {"measurement": "Gi1 hCB1 response", "setting": "[2]; Log [Compound] (M) -9.15521", "value": -12.5675}, {"measurement": "Gi1 hCB1 response", "setting": "[2]; Log [Compound] (M) -9.61989", "value": -10.195}, {"measurement": "Gi1 hCB1 response", "setting": "[2]; Log [Compound] (M) -10.0969", "value": -5.294}, {"measurement": "Gi1 hCB1 response", "setting": "[2]; Log [Compound] (M) -10.5529", "value": 14.9617}, {"measurement": "Gi1 hCB1 response", "setting": "[2]; Log [Compound] (M) -11.0177", "value": -2.317}, {"measurement": "Gi1 hCB1 response", "setting": "[2]; Log [Compound] (M) -11.4949", "value": 8.247}, {"measurement": "Gi1 hCB1 response", "setting": "[2]; Log [Compound] (M) -11.9208", "value": -0.5263}, {"measurement": "Gi1 hCB1 response", "setting": "[2]; Log [Compound] (M) -12.3979", "value": -10.9113}, {"measurement": "Gi1 hCB1 response", "setting": "[2]; Log [Compound] (M) -12.8861", "value": -6.234}, {"measurement": "Gi1 hCB1 response", "setting": "[2]; Log [Compound] (M) -13, individual replicate values", "value": "1.98 and -17.5585"}, {"measurement": "Gi1 hCB1", "setting": "[2]; Log [Compound] (M) -4.22186", "value": 25.3414}, {"measurement": "GoB hCB1", "setting": "[2]; Log [Compound] (M) -4.22186", "value": 15.9048}, {"measurement": "Gi1 hCB1", "setting": "[2]; Log [Compound] (M) -4.63927", "value": 29.288}, {"measurement": "GoB hCB1", "setting": "[2]; Log [Compound] (M) -4.63927", "value": 18.0268}, {"measurement": "Gi1 hCB1", "setting": "[2]; Log [Compound] (M) -5.05788", "value": 28.8564}, {"measurement": "GoB hCB1", "setting": "[2]; Log [Compound] (M) -5.05788", "value": 28.8528}, {"measurement": "Gi1 hCB1", "setting": "[2]; Log [Compound] (M) -5.47381", "value": 27.1451}, {"measurement": "GoB hCB1", "setting": "[2]; Log [Compound] (M) -5.47381", "value": 28.2953}, {"measurement": "Gi1 hCB1", "setting": "[2]; Log [Compound] (M) -5.89285", "value": 25.0947}, {"measurement": "GoB hCB1", "setting": "[2]; Log [Compound] (M) -5.89285", "value": 22.0012}, {"measurement": "Gi1 hCB1", "setting": "[2]; Log [Compound] (M) -6.31878", "value": 21.0402}, {"measurement": "GoB hCB1", "setting": "[2]; Log [Compound] (M) -6.31878", "value": 26.4251}, {"measurement": "Gi1 hCB1", "setting": "[2]; Log [Compound] (M) -6.72585", "value": 17.7873}, {"measurement": "GoB hCB1", "setting": "[2]; Log [Compound] (M) -6.72585", "value": 22.6665}, {"measurement": "Gi1 hCB1", "setting": "[2]; Log [Compound] (M) -7.14267", "value": 12.2681}, {"measurement": "GoB hCB1", "setting": "[2]; Log [Compound] (M) -7.14267", "value": 15.689}, {"measurement": "Gi1 hCB1", "setting": "[2]; Log [Compound] (M) -7.55284", "value": 6.888}, {"measurement": "GoB hCB1", "setting": "[2]; Log [Compound] (M) -7.55284", "value": 4.557}, {"measurement": "Gi1 hCB1", "setting": "[2]; Log [Compound] (M) -8", "value": 2.772}, {"measurement": "GoB hCB1", "setting": "[2]; Log [Compound] (M) -8", "value": 1.9857}, {"measurement": "Gi1 hCB1", "setting": "[2]; Log [Compound] (M) -8.22186", "value": 1.492}, {"measurement": "GoB hCB1", "setting": "[2]; Log [Compound] (M) -8.22186", "value": -4.416}, {"measurement": "Gi1 hCB1", "setting": "[2]; Log [Compound] (M) -8.39794", "value": 0.9061}, {"measurement": "GoB hCB1", "setting": "[2]; Log [Compound] (M) -8.39794", "value": -0.9096}, {"measurement": "Gi1 hCB1", "setting": "[2]; Log [Compound] (M) -8.68787", "value": 1.4611}, {"measurement": "GoB hCB1", "setting": "[2]; Log [Compound] (M) -8.68787", "value": -4.902}, {"measurement": "Gi1 hCB1", "setting": "[2]; Log [Compound] (M) -9.15521", "value": 0.4436}, {"measurement": "GoB hCB1", "setting": "[2]; Log [Compound] (M) -9.15521", "value": -2.744}, {"measurement": "Gi1 hCB1", "setting": "[2]; Log [Compound] (M) -9.61989", "value": -1.406}, {"measurement": "GoB hCB1", "setting": "[2]; Log [Compound] (M) -9.61989", "value": -3.949}, {"measurement": "Gi1 hCB1", "setting": "[2]; Log [Compound] (M) -10.0969", "value": 0.8444}, {"measurement": "GoB hCB1", "setting": "[2]; Log [Compound] (M) -10.0969", "value": -5.531}, {"measurement": "Gi1 hCB1", "setting": "[2]; Log [Compound] (M) -10.5529", "value": -0.3889}, {"measurement": "GoB hCB1", "setting": "[2]; Log [Compound] (M) -10.5529", "value": 0.1334}, {"measurement": "Gi1 hCB1", "setting": "[2]; Log [Compound] (M) -11.0177", "value": -1.067}, {"measurement": "GoB hCB1", "setting": "[2]; Log [Compound] (M) -11.0177", "value": 0.2053}, {"measurement": "Gi1 hCB1", "setting": "[2]; Log [Compound] (M) -11.4949", "value": 0.2894}, {"measurement": "GoB hCB1", "setting": "[2]; Log [Compound] (M) -11.4949", "value": -1.809}, {"measurement": "Gi1 hCB1", "setting": "[2]; Log [Compound] (M) -11.9208", "value": -1.221}, {"measurement": "GoB hCB1", "setting": "[2]; Log [Compound] (M) -11.9208", "value": -1.251}, {"measurement": "Gi1 hCB1", "setting": "[2]; Log [Compound] (M) -12.3979", "value": 0.4282}, {"measurement": "GoB hCB1", "setting": "[2]; Log [Compound] (M) -12.3979", "value": 0.1334}, {"measurement": "Gi1 hCB1", "setting": "[2]; Log [Compound] (M) -12.8861", "value": 1.43}, {"measurement": "GoB hCB1", "setting": "[2]; Log [Compound] (M) -12.8861", "value": -3.211}, {"measurement": "Gi1 hCB1", "setting": "[2]; Log [Compound] (M) -13", "value": "1.507 and -0.6201"}, {"measurement": "GoB hCB1", "setting": "[2]; Log [Compound] (M) -13", "value": "-3.409 and -2.942"}, {"measurement": "pEC50 [95% CI]", "setting": "[2]; hCB1 Gi1", "value": "7.0 [6.9 – 7.1]"}, {"measurement": "pEC50 [95% CI]", "setting": "[2]; hCB1 GoB", "value": "7.4 [7.1 – 7.6]"}, {"measurement": "pEC50 [95% CI]", "setting": "[2]; hCB1 Gz", "value": "7.3 [6.9 – 7.7]"}, {"measurement": "EC50", "setting": "[2]; hCB1 Gi1", "value": 104, "unit": "nM"}, {"measurement": "EC50", "setting": "[2]; hCB1 GoB", "value": 44.8, "unit": "nM"}, {"measurement": "EC50", "setting": "[2]; hCB1 Gz", "value": 54.6, "unit": "nM"}, {"measurement": "Emax", "setting": "[2]; read-out: Emax [95% CI], hCB1 Gi1", "value": 28, "unit": "%"}, {"measurement": "Emax", "setting": "[2]; read-out: Emax [95% CI], hCB1 GoB", "value": 25, "unit": "%"}, {"measurement": "Emax", "setting": "[2]; read-out: Emax [95% CI], hCB1 Gz", "value": 51, "unit": "%"}, {"measurement": "% 1H-CP-55,940 displacement (mean) from single point screen", "setting": "[3]", "value": 61.12, "unit": "%"}]}]}
